Among the data in patent publication US9145419B2, “Imidazopyridazinyl compounds” (Bristol-Myers Squibb Company, priority 2010, dated 2015) are IC50 and testosterone levels values, retold here.

Sequence of Human CYP17 (P05093 whole entry): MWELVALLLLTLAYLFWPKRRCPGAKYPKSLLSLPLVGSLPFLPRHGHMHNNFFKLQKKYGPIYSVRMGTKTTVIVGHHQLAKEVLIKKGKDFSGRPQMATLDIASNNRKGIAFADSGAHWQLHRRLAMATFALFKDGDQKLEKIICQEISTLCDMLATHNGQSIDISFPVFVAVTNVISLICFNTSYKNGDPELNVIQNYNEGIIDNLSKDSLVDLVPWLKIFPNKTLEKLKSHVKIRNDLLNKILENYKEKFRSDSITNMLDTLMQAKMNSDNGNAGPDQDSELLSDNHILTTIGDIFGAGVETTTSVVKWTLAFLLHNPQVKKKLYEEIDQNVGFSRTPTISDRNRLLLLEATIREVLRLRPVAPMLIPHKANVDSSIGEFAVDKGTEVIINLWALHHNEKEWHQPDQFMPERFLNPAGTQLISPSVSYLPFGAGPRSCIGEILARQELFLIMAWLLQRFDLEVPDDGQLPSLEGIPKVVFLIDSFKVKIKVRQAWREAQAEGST

The target in one assay is Human CYP17 (Homo sapiens (Human), UniProt P05093). Nature of the assay: CYP17 Total SPA assay. In kind it is biochemical. The following applies: microsomes from HEK2 cells stably transfected with CYP17; 3H-Pregnenolone 1 uM, NADPH 2 mM. Here is the method:
The assays were performed in U-bottom 384-well optiplates. The final assay volume was 15 μl prepared from 7.5 μl additions of microsomes (prepared as a high-speed pellet from homogenized HEK2 cells stably transfected with CYP17), substrates (3H-Pregnenolone and NADPH) and test compounds in assay buffer (50 mM Potassium phosphate pH 7.2, 10% glycerol). The reaction was initiated by the combination of the microsomes and substrates in wells containing compound. The reaction was incubated at room temperature for 45 minutes and terminated by adding 7.5 μl of 0.2N HCl to each well. Following an incubation period of 10 minutes, anti-DHEA-coated SPA beads were added to the terminated reaction. The plate was sealed and incubated overnight with shaking at 4° C. The beads were allowed to settle in the plate for 1 hour and the plate read on a TOPCOUNT® (Perkin-Elmer) plate reader.
Inhibition data were calculated by comparison to no enzyme control reactions for 100% inhibition and vehicle-only reactions for 0% inhibition. The final concentration of reagents in the assays are NADPH, 2 mM; 3H-Pregnenolone, 1 uM; microsomes, 1.25 ug/ml; Anti-DHEA-SPA beads (0.125 mg/well) in 0.5% Triton X-100 and DMSO, 0.05%. Dose response curves were generated to determine the concentration required inhibiting 50% of enzyme activity (IC50). Compounds were dissolved at 10 mM in dimethylsulfoxide (DMSO) and evaluated at eleven concentrations, each in duplicate. IC50 values were derived by non-linear regression analysis.
On to `Cc1ccncc1-c1ccnn2c(-c3ccccc3)cnc12` [Example 1, 8-(4-Methylpyridin-3-yl)-3-phenylimidazo[1,2-b]pyridazine], for which the IC50 (as a rule, the concentration needed to halve the response being measured) was 41 nM.

`Cc1ccncc1-c1ccnn2c(-c3cccc(Cl)c3)cnc12` [Example 11, 3-(3-chlorophenyl)-8-(4-methylpyridin-3-yl)imidazo[1,2-b]pyridazine]: the concentration for half-maximal inhibition (IC50) worked out at 97 nM.

`Cc1cc(C)cc(-c2cnc3c(-c4cnccc4C)ccnn23)c1` [Example 38, 3-(3,5-dimethylphenyl)-8-(4-methylpyridin-3-yl)imidazo[1,2-b]pyridazine]: the IC50 was 279 nM.

With `Fc1ccc(-c2cnc3c(-c4cccnc4)ccnn23)cc1` [Example 26, 3-(4-fluorophenyl)-8-(pyridin-3-yl)imidazo[1,2-b]pyridazine], the half-maximal inhibitory concentration (IC50) was 524 nM.

For `Cc1ccncc1-c1ccnn2c(-c3cccs3)cnc12` [Example 35, 8-(4-methylpyridin-3-yl)-3-(thiophen-2-yl)imidazo[1,2-b]pyridazine], the half-maximal inhibitory concentration (IC50) stood at 9 nM.

As to `Cc1ccncc1-c1ccnn2c(-c3ccc(F)cc3)cnc12` [Example 7, 3-(4-fluorophenyl)-8-(4-methylpyridin-3-yl)imidazo[1,2-b]pyridazine], the 50% inhibitory concentration (IC50) was determined as 56 nM.

Consider `Cc1cccc(-c2cnc3c(-c4cnccc4C)ccnn23)c1` [Example 9, 8-(4-methylpyridin-3-yl)-3-m-tolylimidazo[1,2-b]pyridazine], for which the concentration for half-maximal inhibition (IC50) stood at 120 nM.

For the molecule `Cc1ccncc1-c1ccnn2c(-c3cc(Cl)cc(Cl)c3)cnc12` [Example 34, 3-(3,5-dichlorophenyl)-8-(4-methylpyridin-3-yl)imidazo[1,2-b]pyridazine], the IC50 was 664 nM.

As to `COc1ccccc1-c1cnc2c(-c3cnccc3C)ccnn12` [Example 3, 3-(2-Methoxyphenyl)-8-(4-methylpyridin-3-yl)imidazo[1,2-b]pyridazine], the IC50 was 16 nM.

Take `Cc1ccncc1-c1ccnn2c(-c3cccc(C(F)(F)F)c3)cnc12` [Example 37, 8-(4-methylpyridin-3-yl)-3-(3-(trifluoromethyl)phenyl)imidazo[1,2-b]pyridazine]: the IC50 is 129 nM.

The next assay has as its system testosterone levels. Nature of the assay: 1-Day Cyno PK/PD study. It counts as in vivo. The following applies: cynomolgus monkeys, single oral dose 3 mg/Kg in 80% PEG-400/water, plasma, over 24 hour period. As to the method: 1-Day Cyno PK/PD Study Protocol
Animals: All procedures involving animals and their care were conducted in conformity with the guidelines that are in compliance with the Bristol-Myers Squibb Institutional Animal Care and Use Committee. Fully mature male cynomolgus monkeys (>4 yrs of age; 5-6 kg) were from an in-house colony. All the monkeys used had chronically implanted femoral vein access ports. For oral studies, all animals were fasted overnight prior to dosing and were fed 4 hr after dosing. All animals had free access to water and were conscious throughout the study.
Drug: For all oral pharmacokinetic studies in cynomolgus monkeys, the tested compound was formulated in polyethylene glycol (PEG 400): water (80:20, v:v) at concentrations of 1-5 mg/mL. […]
Sampling: Blood samples were collected from the femoral port, at 15, 30, and 45 min, and 1, 2, 4, 6, 8, 12, 24, 30, and 48 hr after oral administration. […] The plasma fraction was immediately separated by centrifugation (14,000 rpm, 10 min, 4° C.), frozen on dry ice, and stored at −20° C. until the samples were analyzed.
Analysis of Tested Compound: Plasma samples were thawed and treated with two volumes of acetonitrile containing internal standard. After centrifugation to remove precipitated proteins, an aliquot of supernatant was analyzed by LC/MS/MS. […]
As for `Cc1ccncc1-c1ccnn2c(-c3ccc(F)cc3)cnc12` [Example 7, 3-(4-fluorophenyl)-8-(4-methylpyridin-3-yl)imidazo[1,2-b]pyridazine], the testosterone levels is on record as around 15 ng/dL.
